From patent US6469028B1, “Synthesis and use of retinoid compounds having negative hormone and/or anatgonist activities” (Allergan, Inc., priority 1995, dated 2002) come the findings set out here.

The structures appear in SMILES notation.

The target of one assay is T1, RXRα (Homo sapiens, UniProt P19793).
T1 construct: expressed in transfected cells; host or cells: CV1 cells
T1 sequence (P19793 1-462): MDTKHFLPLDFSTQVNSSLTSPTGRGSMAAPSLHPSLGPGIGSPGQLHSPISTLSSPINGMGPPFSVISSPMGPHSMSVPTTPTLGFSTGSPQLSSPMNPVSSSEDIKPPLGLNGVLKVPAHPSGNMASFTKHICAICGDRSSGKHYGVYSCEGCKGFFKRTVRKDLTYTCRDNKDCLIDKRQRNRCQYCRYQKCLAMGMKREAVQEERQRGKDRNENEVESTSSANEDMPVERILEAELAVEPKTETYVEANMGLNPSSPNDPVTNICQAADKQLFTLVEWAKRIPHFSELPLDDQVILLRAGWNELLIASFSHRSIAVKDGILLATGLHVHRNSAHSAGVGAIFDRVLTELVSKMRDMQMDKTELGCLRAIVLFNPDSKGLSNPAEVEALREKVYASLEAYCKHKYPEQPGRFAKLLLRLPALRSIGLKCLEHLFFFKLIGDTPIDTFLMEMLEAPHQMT
Description: Holoreceptor transactivation assay. It is filed as cell-based. The following applies: relative to all trans retinoic acid; read-out: Transactivation Assay Efficacy (% of RA activity) RXRα.

A further assay deals with T2, RXRγ (Mus musculus, UniProt P28705).
T2 construct: expressed in transfected cells; host or cells: CV1 cells
T2 sequence (P28705 1-463): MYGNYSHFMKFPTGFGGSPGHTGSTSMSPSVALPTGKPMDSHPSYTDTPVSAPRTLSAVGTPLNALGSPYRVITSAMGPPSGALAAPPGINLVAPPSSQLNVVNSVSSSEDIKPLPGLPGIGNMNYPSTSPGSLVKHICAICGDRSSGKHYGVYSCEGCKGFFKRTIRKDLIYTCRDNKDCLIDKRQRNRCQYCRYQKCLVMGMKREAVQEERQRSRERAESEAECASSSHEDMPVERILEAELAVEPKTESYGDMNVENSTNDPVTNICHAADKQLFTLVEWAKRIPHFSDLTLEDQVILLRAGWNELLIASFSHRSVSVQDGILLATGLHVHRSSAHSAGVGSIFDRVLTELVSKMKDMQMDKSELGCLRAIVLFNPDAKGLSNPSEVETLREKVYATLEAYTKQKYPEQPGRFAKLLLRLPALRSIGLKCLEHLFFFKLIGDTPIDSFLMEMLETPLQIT
Description: Holoreceptor transactivation assay. It is filed as cell-based. The following applies: relative to all trans retinoic acid; read-out: Transactivation Assay Efficacy (% of RA activity) RXRγ.

Turning to `Cc1ccc(C2=CCC(C)(C)c3ccc(C#Cc4ccc(C(=O)O)cc4)cc32)cn1` [Compound 18, 4-[(5,6-Dihydro-5,5-dimethyl-8-(2-methyl-5-pyridyl)-2-naphthalenyl)ethynyl]benzoic acid], the Emax at RXRα turned out to be 2%; on RXRγ, 1%.

With `CC1(C)CC=C(c2ccccn2)c2cc(C#Cc3ccc(C(=O)O)cc3)ccc21` [Compound 19, 4-[(5,6-Dihydro-5,5-dimethyl-8-(2-pyridyl)-2-naphthalenyl)ethynyl]benzoic acid], the Emax at RXRα stood at 0%; on RXRγ it was 4%.

On to `Cc1cccc(C2=CCC(C)(C)c3ccc(C#Cc4ccc(C(=O)O)cc4)cc32)c1` [Compound 20, 4-[(5,6-Dihydro-5,5-dimethyl-8-(3-methylphenyl)-2-naphthalenyl)ethynyl]benzoic acid], for which the results for the Emax on RXRα and at RXRγ were 4% and 3%, respectively.

Turning to `CCc1ccc(C2=CCC(C)(C)c3ccc(C#Cc4ccc(C(=O)O)cc4)cc32)cc1` [Compound 21, 4-[(5,6-Dihydro-5,5-dimethyl-8-(4-ethylphenyl)-2-naphthalenyl)ethynyl]benzoic acid], the Emax at RXRα and at RXRγ was 3% each time.

Take `COc1ccc(C2=CCC(C)(C)c3ccc(C#Cc4ccc(C(=O)O)cc4)cc32)cc1` [Compound 22, 4-[(5,6-Dihydro-5,5-dimethyl-8-(4-methoxyphenyl)-2-naphthalenyl)ethynyl]benzoic acid]: the Emax on RXRα came to 1%; at RXRγ, 2%.

With `Cc1cc(C)cc(C2=CCC(C)(C)c3ccc(C#Cc4ccc(C(=O)O)cc4)cc32)c1` [Compound 24, 4-[(5 6-Dihydro-5,5-dimethyl-8-(3,5-dimethylphenyl)-2-naphthalenyl)ethynyl]benzoic acid], the figures for the Emax on RXRα and at RXRγ were 1% and 3%, respectively.

As to `CC1(C)CC=C(c2cccnc2)c2cc(C#Cc3ccc(C(=O)O)cc3)ccc21` [Compound 26, 4-[(5,6-Dihydro-5,5-dimethyl-8-(3-pyridyl)-2-naphthalenyl)ethynyl]benzoic acid], the Emax on RXRα came to 2%; on RXRγ, 3%.

In the case of `Cc1ccccc1C1=CCC(C)(C)c2ccc(C#Cc3ccc(C(=O)O)cc3)cc21` [Compound 27, 4-[(5,6-Dihydro-5,5-dimethyl-8-(2-methylphenyl)-2-naphthalenyl)ethynyl]benzoic acid], the Emax was determined as 2% on RXRα and 4% at RXRγ.

For the molecule `CC1(C)CC=C(c2cccc(O)c2)c2cc(C#Cc3ccc(C(=O)O)cc3)ccc21` [Compound 28, 4-[(5,6-Dihydro5,5-dimethyl-8-(3-hydroxyphenyl)-2-naphthalenyl)ethynyl]benzoic acid], the Emax at RXRα was determined as 2%; on RXRγ, 3%.

On to `CC1(C)CC=C(c2ccc(O)cc2)c2cc(C#Cc3ccc(C(=O)O)cc3)ccc21` [Compound 29, 4-[(5,6-Dihydro-5,5-dimethyl-8-(4-hydroxyphenyl)-2-naphthalenyl)ethynyl]benzoic acid], for which the Emax is 0% at RXRα and 2% on RXRγ.

On to `Cc1cnc(C2=CCC(C)(C)c3ccc(C#Cc4ccc(C(=O)O)cc4)cc32)s1` [Compound 30, 4-[(5,6-Dihydro-5,5-dimethyl-8-(5-methylthiazol-2-yl)-2-naphthalenyl)ethynyl]benzoic acid], for which the figures for the Emax at RXRα and at RXRγ were 0% and 3%, respectively.

With `Cc1csc(C2=CCC(C)(C)c3ccc(C#Cc4ccc(C(=O)O)cc4)cc32)n1` [Compound 31, 4-[(5,6-Dihydro-5,5-dimethyl-8-(4-methylthiazol-2-yl)-2-naphthalenyl)ethynyl]benzoic acid], the Emax was determined as 1% at RXRα and 6% at RXRγ.

Consider `Cc1nc(C2=CCC(C)(C)c3ccc(C#Cc4ccc(C(=O)O)cc4)cc32)sc1C` [Compound 32], for which the Emax was determined as 1% at RXRα and 2% at RXRγ.

For the molecule `Cc1ccc(C2=CCC(C)(C)c3ccc(C#Cc4ccc(C(=O)O)cc4)cc32)s1` [Compound 34, 4-[(5,6-Dihydro-5,5-dimethyl-8-(5-methyl-2-thienyl)-2-naphthalenyl)ethynyl]benzoic acid], the Emax on RXRα stood at 1%; on RXRγ, 3%.

With `Cc1ccc(C2=CCC(C)(C)c3ccc(C(=O)Nc4ccc(C(=O)O)cc4)cc32)cc1` [Compound 36, 4-[[(5,6-Dihydro-5,5-dimethyl-8-(4-methylphenyl)-2-naphthalenyl)carbonyl]amino]-benzoic acid], the Emax on RXRα was 1%; at RXRγ it was 2%.

In the case of `Cc1ccc(C2=CCC(C)(C)c3ccc(C(=O)Oc4ccc(C(=O)O)cc4)cc32)cc1` [Compound 39, 4-[[(5,6-Dihydro-5,5-dimethyl-8-(4-methylphenyl)-2-naphthalenyl)carbonyl]oxy]-benzoic acid], the Emax on RXRα turned out to be 2%; at RXRγ it was 1%.

As to `Cc1ccc(C2=CCC(C)(C)c3ccc(C(=O)Nc4ccc(C(=O)O)c(F)c4)cc32)cc1` [Compound 41, 2-Fluoro-4-[[(5,6-dihydro-5,5-dimethyl-8-(4methylphenyl)-2-naphthalenyl)carbonyl]amino]-benzoic acid], the Emax on RXRα is 1%; at RXRγ it was 3%.

With `Cc1ccc(C2=CCC(C)(C)c3ccc(/C=C/c4ccc(C(=O)O)cc4)cc32)cc1` [Compound 45], the Emax on RXRα amounted to 3%; on RXRγ, 0%.

As to `Cc1ccc(C2=CCC(C)(C)c3ccc(N=Nc4ccc(C(=O)O)cc4)cc32)cc1` [Compound 46b, 4-[(5,6-dihydro-5,5-dimethyl-8-(4-methylphenyl)-2-naphthalenyl)azo]-benzoic acid], the values for the Emax at RXRα and on RXRγ were 2% and 4%, respectively.

On to `CC(/C=C/C=C(\C)c1ccc2c(c1)C(c1ccc(C)cc1)=CCC2(C)C)=C\C(=O)O` [Compound 52, (E,E,E)-3-methyl-7-(5,6-dihydro-5,5-dimethyl-8-(4-methylphenyl)-2-naphthalenyl)-2,4,6-octatrienoic acid], for which the values for the Emax on RXRα and at RXRγ were 0% and 10%, respectively.

For the molecule `CC(C)(C)c1ccc(C2=CCC(C)(C)c3ccc(C#Cc4ccc(C(=O)O)cc4)cc32)cc1` [Compound 61, 4-[(5,6-Dihydro-5,5-dimethyl-8-(4-(1,1-dimethylethyl)phenyl)-2-naphthalenyl)ethynyl]benzoic acid], the Emax was determined as 1% on RXRα and 3% at RXRγ.

For the molecule `Cc1ccc(C2=CCC(C)(C)c3ccc(C(=S)Nc4ccc(C(=O)O)c(F)c4)cc32)cc1` [Compound 63, 2-fluoro-4-[[(5,6-dihydro-5,5-dimethyl-8-(4-methylphenyl)-2-naphthalenyl)thiocarbonyl]amino]-benzoic acid], the Emax at RXRα and on RXRγ was 1% throughout.

For `Cc1ccc(C2=CCC(C)(C)c3cc(C(=O)C=Cc4ccc(C(=O)O)cc4)ccc32)cc1` [Compound 101, 4-[3-oxo-3-(7,8-dihydro-5-(4-methylphenyl)-8,8-dimethyl-2-naphthalenyl)-1-propenyl]-benzoic acid], the Emax is 1% on RXRα and 3% at RXRγ.

For the molecule `CC1(C)CC=C(c2ccccc2)c2ccc(C(=O)C=Cc3ccc(C(=O)O)cc3)cc21` [Compound 103, 4-[3-oxo-3-(7,8-dihydro-5-phenyl-8,8-dimethyl-2-naphthalenyl)-1-propenyl]-benzoic acid], the Emax at RXRα came to 0%; on RXRγ it was 2%.
